Measurements: PubChem BioAssay AID190 (DTP/NCI, 2004)
Several values for one entry are separate records, joined by “and”; a condition that tells them apart may be missing. Identical values can stand only once. Toxic doses and inconclusive results are not listed. Rule for the calls: active = survival T/C of 150% or more; inactive = T/C below 125% in these data.

Test system: AKR/Lw mice, AKR lymphoma ip, median survival T/C
Experiment: NCI In Vivo Anticancer Drug Screen. Data for tumor model Lymphoma AKR (Transplanted) (intraperitoneal) in AKR/Lw mice
Settings: endpoint: median survival time, higher = longer survival
Method: The antitumor activity of compounds was measured in mice bearing transplantable tumors. Survival or tumor size were measured and the results are expressed as the measurement made in the treated group (T) divided by the measurement made in the vehicle treated control group (C). The tumor model used in this assay is Lymphoma AKR (Transplanted) (intraperitoneal) in AKR/Lw mice

[1] = dose: 1.5 mg/kg/injection, schedule: Q01DX001 (ip), vehicle: saline
[2] = dose: 25.0 micrograms/kg/injection, schedule: Q01DX009 (ip), vehicle: saline
[3] = dose: 50.0 micrograms/kg/injection, schedule: Q01DX009 (ip), vehicle: saline
[4] = dose: 100.0 micrograms/kg/injection, schedule: Q01DX009 (ip), vehicle: saline
[5] = dose: 6.0 mg/kg/injection, schedule: Q01DX001 (ip), vehicle: saline
[6] = dose: 100.0 mg/kg/injection, schedule: Q01DX001 (ip), vehicle: Klucel (hydroxypropylcellulose) (HPC)
[7] = dose: 200.0 mg/kg/injection, schedule: Q01DX001 (ip), vehicle: Klucel (hydroxypropylcellulose) (HPC)
[8] = dose: 400.0 mg/kg/injection, schedule: Q01DX001 (ip), vehicle: Klucel (hydroxypropylcellulose) (HPC)
[9] = dose: 100.0 mg/kg/injection, schedule: Q01DX001 (ip), vehicle: saline
[10] = dose: 200.0 mg/kg/injection, schedule: Q01DX001 (ip), vehicle: saline
[11] = dose: 400.0 mg/kg/injection, schedule: Q01DX001 (ip), vehicle: saline

Measured: T/C

C1CN1c1nc(N2CC2)nc(N2CC2)n1
inactive: dose: 0.01 mg/kg/injection, schedule: Q04DX003 (ip), vehicle: saline 102 % of control | dose: 0.02 mg/kg/injection, schedule: Q01DX009 (ip), vehicle: saline 115 % of control | dose: 0.02 mg/kg/injection, schedule: Q04DX003 (ip), vehicle: saline 111 % of control | dose: 0.03 mg/kg/injection, schedule: Q01DX009 (ip), vehicle: saline 109 % of control | dose: 0.03 mg/kg/injection, schedule: Q04DX003 (ip), vehicle: saline 86 % of control and 102 % of control | dose: 0.05 mg/kg/injection, schedule: Q01DX009 (ip), vehicle: saline 115 % of control | dose: 0.05 mg/kg/injection, schedule: Q04DX003 (ip), vehicle: saline 100 % of control | dose: 0.06 mg/kg/injection, schedule: Q01DX009 (ip), vehicle: saline 101 % of control and 109 % of control | dose: 0.06 mg/kg/injection, schedule: Q04DX003 (ip), vehicle: saline 93 % of control and 97 % of control and 107 % of control | dose: 0.1 mg/kg/injection, schedule: Q04DX003 (ip), vehicle: saline 113 % of control | dose: 0.12 mg/kg/injection, schedule: Q01DX001 (ip), vehicle: saline 106 % of control | dose: 0.2 mg/kg/injection, schedule: Q04DX003 (ip), vehicle: saline 115 % of control and 122 % of control | dose: 0.25 mg/kg/injection, schedule: Q01DX001 (ip), vehicle: saline 106 % of control and 111 % of control | dose: 0.3 mg/kg/injection, schedule: Q04DX003 (ip), vehicle: saline 121 % of control | dose: 0.35 mg/kg/injection, schedule: Q04DX003 (ip), vehicle: saline 120 % of control | dose: 0.37 mg/kg/injection, schedule: Q01DX001 (ip), vehicle: saline 105 % of control | dose: 0.6 mg/kg/injection, schedule: Q01DX009 (ip), vehicle: saline 116 % of control | dose: 0.75 mg/kg/injection, schedule: Q01DX001 (ip), vehicle: saline 105 % of control and 115 % of control | dose: 1.2 mg/kg/injection, schedule: Q01DX009 (ip), vehicle: saline 93 % of control | [1] 123 % of control | dose: 2.5 mg/kg/injection, schedule: Q01DX009 (ip), vehicle: saline 93 % of control | dose: 15.0 micrograms/kg/injection, schedule: Q01DX009 (ip), vehicle: saline 113 % of control | [2] 102 % of control | dose: 30.0 micrograms/kg/injection, schedule: Q01DX009 (ip), vehicle: saline 115 % of control | [3] 111 % of control | [4] 116 % of control | dose: 120.0 micrograms/kg/injection, schedule: Q01DX009 (ip), vehicle: saline 107 % of control | dose: 250.0 micrograms/kg/injection, schedule: Q01DX009 (ip), vehicle: saline 105 % of control
active: dose: 0.8 mg/kg/injection, schedule: Q04DX003 (ip), vehicle: saline 188 % of control

S=P(N1CC1)(N1CC1)N1CC1
inactive: dose: 0.1 mg/kg/injection, schedule: Q01DX009 (ip), vehicle: saline 110 % of control | dose: 0.25 mg/kg/injection, schedule: Q01DX009 (ip), vehicle: saline 87 % of control | dose: 0.5 mg/kg/injection, schedule: Q01DX009 (ip), vehicle: saline 90 % of control | dose: 0.5 mg/kg/injection, schedule: Q04DX003 (ip), vehicle: saline 117 % of control | dose: 1.0 mg/kg/injection, schedule: Q01DX009 (ip), vehicle: saline 108 % of control and 112 % of control and 117 % of control | dose: 1.0 mg/kg/injection, schedule: Q04DX003 (ip), vehicle: saline 120 % of control | dose: 1.2 mg/kg/injection, schedule: Q04DX003 (ip), vehicle: saline 100 % of control | [1] 106 % of control | dose: 2.0 mg/kg/injection, schedule: Q01DX009 (ip), vehicle: saline 111 % of control | dose: 2.5 mg/kg/injection, schedule: Q01DX001 (ip), vehicle: saline 104 % of control | dose: 2.5 mg/kg/injection, schedule: Q04DX003 (ip), vehicle: saline 87 % of control and 112 % of control and 117 % of control | dose: 3.0 mg/kg/injection, schedule: Q01DX001 (ip), vehicle: saline 109 % of control | dose: 3.0 mg/kg/injection, schedule: Q04DX003 (ip), vehicle: saline 122 % of control | dose: 3.75 mg/kg/injection, schedule: Q01DX009 (ip), vehicle: saline 116 % of control | dose: 5.0 mg/kg/injection, schedule: Q01DX001 (ip), vehicle: saline 95 % of control and 100 % of control and 103 % of control | [5] 104 % of control and 106 % of control | dose: 6.2 mg/kg/injection, schedule: Q01DX001 (ip), vehicle: saline 118 % of control | dose: 6.25 mg/kg/injection, schedule: Q01DX001 (ip), vehicle: saline 123 % of control | dose: 7.5 mg/kg/injection, schedule: Q01DX001 (ip), vehicle: saline 102 % of control and 116 % of control | dose: 7.5 mg/kg/injection, schedule: Q01DX009 (ip), vehicle: saline 105 % of control | dose: 10.0 mg/kg/injection, schedule: Q01DX001 (ip), vehicle: saline 111 % of control | dose: 10.0 mg/kg/injection, schedule: Q04DX003 (ip), vehicle: saline 87 % of control | dose: 15.0 mg/kg/injection, schedule: Q01DX009 (ip), vehicle: saline 88 % of control | dose: 16.0 mg/kg/injection, schedule: Q04DX003 (ip), vehicle: saline 97 % of control | dose: 12.0 micrograms/kg/injection, schedule: Q01DX009 (ip), vehicle: saline 111 % of control | dose: 12.5 micrograms/kg/injection, schedule: Q01DX009 (ip), vehicle: saline 102 % of control | [2] 100 % of control and 111 % of control | [3] 105 % of control | [4] 94 % of control and 108 % of control | dose: 200.0 micrograms/kg/injection, schedule: Q01DX009 (ip), vehicle: saline 102 % of control

CC(C)OC(=O)Oc1cccc2c1C(=O)c1ccccc1C2=O
inactive: [6] 95 % of control | [7] 91 % of control

Cc1cccc(C)c1NC(=S)N(C)C
inactive: dose: 2.5 mg/kg/injection, schedule: Q04DX003 (ip), vehicle: Klucel (hydroxypropylcellulose) (HPC) 91 % of control | dose: 5.0 mg/kg/injection, schedule: Q04DX003 (ip), vehicle: Klucel (hydroxypropylcellulose) (HPC) 94 % of control | dose: 10.0 mg/kg/injection, schedule: Q04DX003 (ip), vehicle: Klucel (hydroxypropylcellulose) (HPC) 102 % of control | [6] 92 % of control | [8] 111 % of control

c1ccc(C[N+](Cc2ccccc2)=C2CCCCC2)cc1
inactive: [9] 111 % of control | [10] 114 % of control

CCOC(=O)CCCSCCCC(=O)OCC
inactive: [10] 89 % of control | [11] 95 % of control

COc1cc2c(cc1OC)C1CCN3CCCC3N1CC2 (configuration not stated)
inactive: [6] 100 % of control

COC(=O)CC(=O)c1ccc(C)cc1
inactive: [6] 100 % of control | [7] 103 % of control | [8] 120 % of control

Cc1cc(NS(=O)(=O)c2ccc(N)cc2)no1
inactive: [9] 110 % of control | dose: 100.0 mg/kg/injection, schedule: Q04DX003 (ip), vehicle: other 95 % of control | [10] 103 % of control | dose: 200.0 mg/kg/injection, schedule: Q04DX003 (ip), vehicle: other 95 % of control | [11] 96 % of control | dose: 400.0 mg/kg/injection, schedule: Q04DX003 (ip), vehicle: other 95 % of control

CN(C)CCCc1c2ccccc2nc2ccc(Cl)cc12
inactive: [5] 100 % of control | dose: 12.0 mg/kg/injection, schedule: Q01DX001 (ip), vehicle: saline 103 % of control | dose: 25.0 mg/kg/injection, schedule: Q01DX001 (ip), vehicle: saline 109 % of control

ClC1=C(Cl)C2(Cl)C(COc3ccc(Cl)cc3)CC1(Cl)C2(Cl)Cl (configuration not stated)
inactive: [9] 94 % of control | [10] 88 % of control | [11] 91 % of control

COc1ccc(NC(=S)Nc2ccccn2)cc1
inactive: [6] 100 % of control
